Test systems include K-562 leukemia; 786-0 renal; HOP-92 NSCLC; LOX IMVI melanoma; UO-31 renal; KM12 colon; HCT-116 colon; UACC-62 melanoma; NCI-H226 lung; MOLT-4 leukemia.
What all share (test): NCI-60 cell line screen, 48 h

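How tested: cells in 96-well plates exposed to compound for 48 hours at five concentrations. GI50 = concentration required for 50% inhibition of growth. TGI marks complete inhibition of growth.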

Take `Cl.[O-]c1cccc2cccnc12.[O-]c1cccc2cccnc12.[O-]c1cccc2cccnc12.[O-]c1cccc2cccnc12.[Ti+4]`: the GI50 with K-562 leukemia is 0.303 µM; with 786-0 renal, 0.567 µM; in the experiment on HOP-92 NSCLC it was 15.7 µM; in the experiment with LOX IMVI melanoma, 1.69 µM; in the experiment with UO-31 renal, 5.59 µM; in the experiment on KM12 colon it was 2.28 µM. The values for the GI50 in the experiment with HCT-116 colon, in the experiment with UACC-62 melanoma and in the experiment with NCI-H226 lung were 0.355 µM, 1.84 µM and 7.9 µM, respectively. Besides, the TGI is 4.41 µM in the experiment on 786-0 renal; greater than 71.7 µM with HOP-92 NSCLC; greater than 88.9 µM with LOX IMVI melanoma; greater than 100 µM in the experiment with UO-31 renal; 8.04 µM in the experiment on KM12 colon; 14.6 µM with UACC-62 melanoma. The same molecule yielded a TGI with NCI-H226 lung greater than 89.9 µM.
In the case of `C[C@H]1[C@H](C)CC[C@]2(C(=O)O)CCC3(COC(=O)/C=C/c4ccc(O)cc4)C(=CCC4[C@@]5(C)CC[C@H](O)C(C)(C)C5CC[C@]43C)[C@H]12` (some centres not stated), the TGI in the experiment with K-562 leukemia came out at 20.9 µM; in the experiment with MOLT-4 leukemia, 32.4 µM; in the experiment with 786-0 renal it was 16 µM; in the experiment with LOX IMVI melanoma, 18.3 µM; in the experiment with UO-31 renal, 15.6 µM; with KM12 colon it was 16.3 µM. Further, the TGI with HCT-116 colon stood at 14.2 µM; in the experiment on UACC-62 melanoma, 23 µM; in the experiment on NCI-H226 lung, 23.4 µM.
As to `O=C(O)C1C2C=CC(O2)C1C(=O)NCc1ccncc1` (configuration not stated), the TGI in the experiment with K-562 leukemia, in the experiment with 786-0 renal, in the experiment with HOP-92 NSCLC, in the experiment on LOX IMVI melanoma, in the experiment with UO-31 renal and in the experiment with KM12 colon was greater than 100 µM in each case. In addition, the TGI in the experiment on HCT-116 colon, in the experiment with UACC-62 melanoma and in the experiment with NCI-H226 lung was greater than 100 µM throughout.
As for `Cc1cc(=O)n2c(cc3cccccc32)n1`, the TGI with K-562 leukemia, with MOLT-4 leukemia, in the experiment on 786-0 renal, in the experiment on LOX IMVI melanoma, in the experiment on UO-31 renal and in the experiment with KM12 colon was greater than 100 µM in each case. The TGI in the experiment with UACC-62 melanoma and with NCI-H226 lung was greater than 100 µM throughout.
Regarding `COc1ccc2[nH]cc(Cc3c[nH]c4ccc(OC)cc34)c2c1`, the GI50 is 19.1 µM with K-562 leukemia; 37.4 µM in the experiment on MOLT-4 leukemia; 38.9 µM with 786-0 renal; 14.9 µM with LOX IMVI melanoma; 27.5 µM in the experiment on UO-31 renal; 19 µM in the experiment with KM12 colon. Besides, the GI50 in the experiment with HCT-116 colon is 15.8 µM; with UACC-62 melanoma it was 16 µM; with NCI-H226 lung, 18.5 µM. For the same molecule, the TGI in the experiment on K-562 leukemia is 71.4 µM; in the experiment with MOLT-4 leukemia it was greater than 100 µM; with 786-0 renal, greater than 100 µM; in the experiment on LOX IMVI melanoma it was 28.1 µM; with UO-31 renal it was greater than 100 µM; in the experiment with KM12 colon, 41.4 µM. Also, the TGI worked out at 29.2 µM in the experiment on HCT-116 colon, 29.5 µM with UACC-62 melanoma and 48.9 µM in the experiment on NCI-H226 lung.
As to `COc1ccc(C(=O)Nc2ccn(CCOC(=O)c3ccc(OC)cc3)c(=O)n2)cc1`, the TGI in the experiment with K-562 leukemia, with 786-0 renal, with HOP-92 NSCLC, in the experiment with LOX IMVI melanoma, in the experiment with UO-31 renal and in the experiment with KM12 colon was greater than 100 µM each time. The TGI in the experiment with HCT-116 colon, in the experiment with UACC-62 melanoma and in the experiment with NCI-H226 lung was greater than 100 µM in each case.
Turning to `Oc1ccccc1/C=N\Nc1ccccc1`, the GI50 in the experiment with MOLT-4 leukemia was 0.974 µM; in the experiment on 786-0 renal, 2.7 µM; in the experiment on HOP-92 NSCLC, 10.7 µM; in the experiment with LOX IMVI melanoma, 0.725 µM; in the experiment on UO-31 renal, 2.35 µM; in the experiment on KM12 colon, 2.25 µM. Moreover, the GI50 in the experiment on HCT-116 colon is 7.22 µM; in the experiment on UACC-62 melanoma, 0.798 µM; in the experiment with NCI-H226 lung, 3.13 µM. The TGI in the experiment on MOLT-4 leukemia is 55.6 µM; in the experiment with 786-0 renal, 16.6 µM; in the experiment with HOP-92 NSCLC it was 42.8 µM; with LOX IMVI melanoma, 12.5 µM; with UO-31 renal it was 36.3 µM; in the experiment with KM12 colon it was greater than 100 µM. The TGI is greater than 100 µM in the experiment with HCT-116 colon, 10.1 µM in the experiment on UACC-62 melanoma and 31.4 µM with NCI-H226 lung.
As for `Cc1nccc2c3ccc(OCc4cn(-c5ccc(Br)cc5)nn4)cc3n(CCCc3ccccc3)c12`, the GI50 in the experiment with MOLT-4 leukemia is 5.55 µM; in the experiment on 786-0 renal, 1.49 µM; with HOP-92 NSCLC it was 47.4 µM; in the experiment on UO-31 renal, 1.41 µM; with KM12 colon, 2.73 µM; in the experiment with HCT-116 colon, 7.2 µM. Besides, the values for the GI50 with UACC-62 melanoma and in the experiment with NCI-H226 lung were 2.46 µM and 1.75 µM, respectively. The TGI is greater than 100 µM with MOLT-4 leukemia; 3.13 µM with 786-0 renal; greater than 100 µM in the experiment with HOP-92 NSCLC; 3.01 µM with UO-31 renal; greater than 100 µM in the experiment on KM12 colon; greater than 100 µM in the experiment on HCT-116 colon. Further, the values for the TGI in the experiment with UACC-62 melanoma and with NCI-H226 lung were 7.08 µM and 13.6 µM, respectively.
Regarding `COc1cc2c(cc1OC)-c1c(c3ccc([N+](=O)[O-])cc3c(=O)n1CCCN=[N+]=[N-])C2=O`, the GI50 with K-562 leukemia was 19.6 µM; in the experiment on MOLT-4 leukemia it was 23.3 µM; in the experiment with 786-0 renal it was 50.4 µM; in the experiment on LOX IMVI melanoma, 25.3 µM; in the experiment on UO-31 renal, 42.4 µM; with KM12 colon, greater than 100 µM. In addition, the GI50 in the experiment with HCT-116 colon was 31.5 µM; in the experiment with UACC-62 melanoma, 51.9 µM; in the experiment with NCI-H226 lung it was greater than 100 µM. The TGI in the experiment on K-562 leukemia, in the experiment with MOLT-4 leukemia, in the experiment on 786-0 renal, with LOX IMVI melanoma, with UO-31 renal and in the experiment with KM12 colon was greater than 100 µM each time. The TGI in the experiment with HCT-116 colon, in the experiment with UACC-62 melanoma and with NCI-H226 lung was greater than 100 µM each time.
Regarding `CC1OC(OC2C(O)C(OCCc3ccc(O)c(O)c3)OC(CO)C2OC(=O)/C=C/c2ccc(O)c(O)c2)C(O)C(O)C1O` (configuration not stated), the GI50 in the experiment with K-562 leukemia was 15.5 µM; in the experiment with 786-0 renal, 14.5 µM; in the experiment on HOP-92 NSCLC, greater than 100 µM; in the experiment on LOX IMVI melanoma, 18.2 µM; with UO-31 renal, 23.7 µM; in the experiment with KM12 colon, greater than 100 µM. The GI50 in the experiment with HCT-116 colon is greater than 100 µM; in the experiment on UACC-62 melanoma, 19.1 µM. For the same molecule, the TGI was greater than 100 µM in the experiment with K-562 leukemia; 36.3 µM in the experiment with 786-0 renal; greater than 100 µM in the experiment on HOP-92 NSCLC; 36 µM in the experiment with LOX IMVI melanoma; 57.6 µM in the experiment with UO-31 renal; greater than 100 µM with KM12 colon. Further, the TGI with HCT-116 colon is greater than 100 µM; with UACC-62 melanoma, 45.5 µM.
